Experimental data published in PubChem BioAssay (NCI).
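In this assay, cells in 96-well plates receive the compound at five concentrations for 48 hours. Endpoints are linearly interpolated between the surrounding concentrations. Abbreviation: GI50, concentration required for 50% inhibition of growth. At the TGI there is no net growth.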

Tested on: T-47D breast
Assay: NCI anticancer screen, dose series, 48 h

Compound	TGI	GI50
Nc1nc(Nc2ccccc2)sc1C(=O)c1c[nH]c2ccccc12	33.3 µM	–
COc1c(O)c(O)cc2c1-c1ccc(OC)c(=O)cc1C(NC(C)=O)CC2 (stereo not given)	> 100 µM	–
Cn1ccnc1Sc1ccc(C=Nc2ccc3nc(SCC(=O)NC4CCCCC4)sc3c2)cc1[N+](=O)[O-]	> 100 µM	–
N#CCCN(CCC#N)c1ccc(/C=C2\SC(=S)NC2=O)cc1Br	> 100 µM	–
C=C1C(=O)OC2/C=C(/C)C3(O)OC(C)(CC(OC(=O)C(C)C)C12)CC3OC(C)=O (stereo not given)	> 100 µM	–
O=C(O)c1ccc2c(c1)CC1(C2)Cc2cc3c(cc2C1=O)CCC3 (stereo not given)	> 100 µM	–
CC1C(c2ccc3c(c2)OCO3)c2cc3c(cc2OC1N1CCOCC1)OCO3 (stereo not given)	> 100 µM	–
OC1(c2ccc(Cl)cc2)c2ccc(CN3CCCC3)cc2C2=NCCN21 (stereo not given)	38.5 µM	–
O=c1n(Cc2ccccc2)c(=O)n2c(=O)n(Cc3ccccc3)c(=O)n12	> 100 µM	–
Cc1ccc(S(=O)(=O)NC(=O)NNc2ccc(F)cc2)cc1	> 100 µM	–
CCN(CC)CCNc1ccc2ncn3c4cc(OC)c(OC)c(=O)c4c(O)c1c23	42.4 µM	–
NS(=O)(=O)c1ccc(NC(NC(=O)C(C(F)(F)F)C(F)(F)F)(C(F)(F)F)C(F)(F)F)cc1	> 100 µM	–
CCc1nc2cc3cccnc3c(Cl)c2[nH]c1=O	> 100 µM	–
CC(C)(C)C(=O)C(Cc1ccccc1)C(=O)C(C)(C)C	> 100 µM	–
COc1ccc(-c2csc(NC(=O)CSc3nc(C)c(-c4ccccc4)n3Nc3ccccc3)n2)cc1	7.49 µM	2.82 µM
Clc1ccc(Cl)c(SCCCN2CCNCC2)c1	58.1 µM	–
O=C1CCc2ccc3c(c21)CC1(Cc2ccccc2C1)C3	59.2 µM	–

Tested on: HCT-15 colon
Assay: NCI anticancer screen, dose series, 48 h

Compound	TGI	GI50
Nc1nc(Nc2ccccc2)sc1C(=O)c1c[nH]c2ccccc12	14.7 µM	–
COc1c(O)c(O)cc2c1-c1ccc(OC)c(=O)cc1C(NC(C)=O)CC2 (stereo not given)	> 100 µM	–
Cn1ccnc1Sc1ccc(C=Nc2ccc3nc(SCC(=O)NC4CCCCC4)sc3c2)cc1[N+](=O)[O-]	> 100 µM	–
N#CCCN(CCC#N)c1ccc(/C=C2\SC(=S)NC2=O)cc1Br	> 100 µM	–
C=C1C(=O)OC2/C=C(/C)C3(O)OC(C)(CC(OC(=O)C(C)C)C12)CC3OC(C)=O (stereo not given)	24.5 µM	–
O=C(O)c1ccc2c(c1)CC1(C2)Cc2cc3c(cc2C1=O)CCC3 (stereo not given)	> 100 µM	–
CC1C(c2ccc3c(c2)OCO3)c2cc3c(cc2OC1N1CCOCC1)OCO3 (stereo not given)	> 93.7 µM	–
OC1(c2ccc(Cl)cc2)c2ccc(CN3CCCC3)cc2C2=NCCN21 (stereo not given)	32.9 µM	–
O=c1n(Cc2ccccc2)c(=O)n2c(=O)n(Cc3ccccc3)c(=O)n12	> 100 µM	–
Cc1ccc(S(=O)(=O)NC(=O)NNc2ccc(F)cc2)cc1	> 100 µM	–
CCN(CC)CCNc1ccc2ncn3c4cc(OC)c(OC)c(=O)c4c(O)c1c23	24.7 µM	–
NS(=O)(=O)c1ccc(NC(NC(=O)C(C(F)(F)F)C(F)(F)F)(C(F)(F)F)C(F)(F)F)cc1	> 100 µM	–
CCc1nc2cc3cccnc3c(Cl)c2[nH]c1=O	> 100 µM	–
CC(C)(C)C(=O)C(Cc1ccccc1)C(=O)C(C)(C)C	> 100 µM	–
COc1ccc(-c2csc(NC(=O)CSc3nc(C)c(-c4ccccc4)n3Nc3ccccc3)n2)cc1	> 100 µM	6.9 µM
Clc1ccc(Cl)c(SCCCN2CCNCC2)c1	40.7 µM	–
O=C1CCc2ccc3c(c21)CC1(Cc2ccccc2C1)C3	> 100 µM	–

Tested on: OVCAR-4 ovarian
Assay: NCI anticancer screen, dose series, 48 h

Compound	TGI	GI50
Nc1nc(Nc2ccccc2)sc1C(=O)c1c[nH]c2ccccc12	23.5 µM	–
COc1c(O)c(O)cc2c1-c1ccc(OC)c(=O)cc1C(NC(C)=O)CC2 (stereo not given)	77.2 µM	–
Cn1ccnc1Sc1ccc(C=Nc2ccc3nc(SCC(=O)NC4CCCCC4)sc3c2)cc1[N+](=O)[O-]	> 100 µM	–
N#CCCN(CCC#N)c1ccc(/C=C2\SC(=S)NC2=O)cc1Br	> 100 µM	–
C=C1C(=O)OC2/C=C(/C)C3(O)OC(C)(CC(OC(=O)C(C)C)C12)CC3OC(C)=O (stereo not given)	> 65.5 µM	–
O=C(O)c1ccc2c(c1)CC1(C2)Cc2cc3c(cc2C1=O)CCC3 (stereo not given)	> 100 µM	–
CC1C(c2ccc3c(c2)OCO3)c2cc3c(cc2OC1N1CCOCC1)OCO3 (stereo not given)	> 100 µM	–
OC1(c2ccc(Cl)cc2)c2ccc(CN3CCCC3)cc2C2=NCCN21 (stereo not given)	25.1 µM	–
O=c1n(Cc2ccccc2)c(=O)n2c(=O)n(Cc3ccccc3)c(=O)n12	> 100 µM	–
Cc1ccc(S(=O)(=O)NC(=O)NNc2ccc(F)cc2)cc1	> 100 µM	–
CCN(CC)CCNc1ccc2ncn3c4cc(OC)c(OC)c(=O)c4c(O)c1c23	24.4 µM	–
NS(=O)(=O)c1ccc(NC(NC(=O)C(C(F)(F)F)C(F)(F)F)(C(F)(F)F)C(F)(F)F)cc1	> 100 µM	–
CCc1nc2cc3cccnc3c(Cl)c2[nH]c1=O	> 100 µM	–
CC(C)(C)C(=O)C(Cc1ccccc1)C(=O)C(C)(C)C	> 100 µM	–
COc1ccc(-c2csc(NC(=O)CSc3nc(C)c(-c4ccccc4)n3Nc3ccccc3)n2)cc1	> 100 µM	8.24 µM
Clc1ccc(Cl)c(SCCCN2CCNCC2)c1	47.9 µM	–
O=C1CCc2ccc3c(c21)CC1(Cc2ccccc2C1)C3	> 100 µM	–

Tested on: TK-10 renal
Assay: NCI anticancer screen, dose series, 48 h

Compound	TGI	GI50
Nc1nc(Nc2ccccc2)sc1C(=O)c1c[nH]c2ccccc12	11 µM	–
COc1c(O)c(O)cc2c1-c1ccc(OC)c(=O)cc1C(NC(C)=O)CC2 (stereo not given)	> 100 µM	–
Cn1ccnc1Sc1ccc(C=Nc2ccc3nc(SCC(=O)NC4CCCCC4)sc3c2)cc1[N+](=O)[O-]	32.2 µM	–
N#CCCN(CCC#N)c1ccc(/C=C2\SC(=S)NC2=O)cc1Br	> 100 µM	–
C=C1C(=O)OC2/C=C(/C)C3(O)OC(C)(CC(OC(=O)C(C)C)C12)CC3OC(C)=O (stereo not given)	24.4 µM	–
O=C(O)c1ccc2c(c1)CC1(C2)Cc2cc3c(cc2C1=O)CCC3 (stereo not given)	> 100 µM	–
CC1C(c2ccc3c(c2)OCO3)c2cc3c(cc2OC1N1CCOCC1)OCO3 (stereo not given)	> 100 µM	–
OC1(c2ccc(Cl)cc2)c2ccc(CN3CCCC3)cc2C2=NCCN21 (stereo not given)	17.4 µM	–
O=c1n(Cc2ccccc2)c(=O)n2c(=O)n(Cc3ccccc3)c(=O)n12	> 100 µM	–
Cc1ccc(S(=O)(=O)NC(=O)NNc2ccc(F)cc2)cc1	> 100 µM	–
CCN(CC)CCNc1ccc2ncn3c4cc(OC)c(OC)c(=O)c4c(O)c1c23	31.6 µM	–
NS(=O)(=O)c1ccc(NC(NC(=O)C(C(F)(F)F)C(F)(F)F)(C(F)(F)F)C(F)(F)F)cc1	> 100 µM	–
CCc1nc2cc3cccnc3c(Cl)c2[nH]c1=O	> 100 µM	–
CC(C)(C)C(=O)C(Cc1ccccc1)C(=O)C(C)(C)C	> 100 µM	–
COc1ccc(-c2csc(NC(=O)CSc3nc(C)c(-c4ccccc4)n3Nc3ccccc3)n2)cc1	> 100 µM	> 100 µM
Clc1ccc(Cl)c(SCCCN2CCNCC2)c1	31.4 µM	–
O=C1CCc2ccc3c(c21)CC1(Cc2ccccc2C1)C3	99.3 µM	–

Tested on: RPMI-8226 leukemia
Assay: NCI anticancer screen, dose series, 48 h

Compound	TGI	GI50
Nc1nc(Nc2ccccc2)sc1C(=O)c1c[nH]c2ccccc12	> 100 µM	–
COc1c(O)c(O)cc2c1-c1ccc(OC)c(=O)cc1C(NC(C)=O)CC2 (stereo not given)	54.9 µM	–
Cn1ccnc1Sc1ccc(C=Nc2ccc3nc(SCC(=O)NC4CCCCC4)sc3c2)cc1[N+](=O)[O-]	> 100 µM	–
N#CCCN(CCC#N)c1ccc(/C=C2\SC(=S)NC2=O)cc1Br	> 100 µM	–
C=C1C(=O)OC2/C=C(/C)C3(O)OC(C)(CC(OC(=O)C(C)C)C12)CC3OC(C)=O (stereo not given)	> 100 µM	–
O=C(O)c1ccc2c(c1)CC1(C2)Cc2cc3c(cc2C1=O)CCC3 (stereo not given)	> 100 µM	–
CC1C(c2ccc3c(c2)OCO3)c2cc3c(cc2OC1N1CCOCC1)OCO3 (stereo not given)	61.6 µM	–
OC1(c2ccc(Cl)cc2)c2ccc(CN3CCCC3)cc2C2=NCCN21 (stereo not given)	26 µM	–
O=c1n(Cc2ccccc2)c(=O)n2c(=O)n(Cc3ccccc3)c(=O)n12	> 100 µM	–
Cc1ccc(S(=O)(=O)NC(=O)NNc2ccc(F)cc2)cc1	> 58.2 µM	–
CCN(CC)CCNc1ccc2ncn3c4cc(OC)c(OC)c(=O)c4c(O)c1c23	20.2 µM	–
NS(=O)(=O)c1ccc(NC(NC(=O)C(C(F)(F)F)C(F)(F)F)(C(F)(F)F)C(F)(F)F)cc1	> 100 µM	–
CCc1nc2cc3cccnc3c(Cl)c2[nH]c1=O	> 100 µM	–
CC(C)(C)C(=O)C(Cc1ccccc1)C(=O)C(C)(C)C	> 100 µM	–
COc1ccc(-c2csc(NC(=O)CSc3nc(C)c(-c4ccccc4)n3Nc3ccccc3)n2)cc1	> 100 µM	6.74 µM
Clc1ccc(Cl)c(SCCCN2CCNCC2)c1	48.6 µM	–
O=C1CCc2ccc3c(c21)CC1(Cc2ccccc2C1)C3	> 100 µM	–
